Values after ≈ are worked out from the molar mass of the structure shown.
System: S. pneumoniae ATCC 49619
Assay: Minimal inhibitory concentration (MIC) by microdilution method (CLSI M7-A7)
Assay type: cell-based, Streptococcus pneumoniae
Conditions: Streptococcus pneumoniae, ATCC49619, cation-adjusted Mueller-Hinton Broth supplemented with 3% (v/v) lysed horse blood
Outline: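 Broth microdilution per CLSI M7-A7 in cation-adjusted Mueller-Hinton broth, supplemented with 3% (v/v) lysed horse blood for S. pneumoniae; MIC reported in mg/l.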

Row | Structure (SMILES) | MIC [µg/mL]
1 | CCNC(=O)Nc1cc2c(-c3ccncc3)ccc(Nc3cccc(C)n3)c2cn1 [Example 219, 1-ethyl-3-[8-(6-methyl-pyridin-2-ylamino)-5-pyridin-4-yl-isoquinolin-3-yl]-urea] | 0.25 (≈ 0.627 µM)
2 | CCCNc1cc(C)c2cnc(NC(=O)NCC)cc2c1 [Example 115, 1-ethyl-3-(8-methyl-6-propylamino-isoquinolin-3-yl)-urea] | 4 (≈ 14 µM)
3 | CCNC(=O)Nc1cc2cc(-c3cnc4ccccc4c3)cc(C)c2cn1 [Example 36, 1-ethyl-3-(8-methyl-6-quinolin-3-yl-isoquinolin-3-yl)-urea] | 0.125 (≈ 0.351 µM)
4 | CCNC(=O)Nc1cc2cc(-c3cccnc3Cl)cc(C)c2cn1 [Example 82, 1-[6-(2-chloro-pyridin-3-yl)-8-methyl-isoquinolin-3-yl]-3-ethyl-urea] | 8 (≈ 23.5 µM)
5 | CCNC(=O)Nc1cc2cc(-c3cccc(C(N)=O)c3)cc(C)c2cn1 [Example 31, 3-[3-(3-ethyl-ureido)-8-methyl-isoquinolin-6-yl]-benzamide] | 1 (≈ 2.87 µM)
6 | CCNC(=O)Nc1cc2cc(-c3ccc(C(N)=O)cc3)cc(C)c2cn1 [Example 30, 4-[3-(3-ethyl-ureido)-8-methyl-isoquinolin-6-yl]-benzamide] | 1 (≈ 2.87 µM)
7 | CCNC(=O)Nc1cc2cccc(Cn3ccnc3)c2cn1 [Example 299, 1-ethyl-3-(8-imidazol-1-ylmethyl-isoquinolin-3-yl)-urea] | 4 (≈ 13.5 µM)
8 | CCNC(=O)Nc1cc2cccc(Nc3ccc(OC)c(C(N)=O)c3)c2cn1 [Example 242, 5-[3-(3-ethyl-ureido)-isoquinolin-8-ylamino]-2-methoxy-benzamide] | 0.5 (≈ 1.32 µM)
9 | CCNC(=O)Nc1cc2cc(-c3cn[nH]c3)cc(C)c2cn1 [Example 28, 1-ethyl-3-[8-methyl-6-(1H-pyrazol-4-yl)-isoquinolin-3-yl]-urea] | 2 (≈ 6.77 µM)
10 | CCNC(=O)Nc1cc2c(F)ccc(Br)c2cn1 [Example 32, 1-(8-bromo-5-fluoro-isoquinolin-3-yl)-3-ethyl-urea] | 16 (≈ 51.3 µM)
11 | CCNC(=O)Nc1cc2c(-c3cccnc3)ccc(C)c2cn1 [Example 50, 1-ethyl-3-(8-methyl-5-pyridin-3-yl-isoquinolin-3-yl)-urea] | 8 (≈ 26.1 µM)
12 | CCNC(=O)Nc1cc2cccc(COc3ccc(C)cn3)c2cn1.Cl [Example 257, 1-ethyl-3-[8-(5-methyl-pyridin-2-yloxymethyl)-isoquinolin-3-yl]-urea hydrochloride] | 8
13 | CCNC(=O)Nc1cc2c(-c3ccncn3)ccc(C)c2cn1 [Example 278, 1-ethyl-3-(8-methyl-5-pyrimidin-4-yl-isoquinolin-3-yl)-urea] | 2 (≈ 6.51 µM)
14 | CCNC(=O)Nc1cc2cccc(Nc3ccc(C(=O)OC)c(C)c3)c2cn1 [Example 266, 4-[3-(3-ethyl-ureido)-isoquinolin-8-ylamino]-2-methyl-benzoic acid methyl ester] | 4 (≈ 10.6 µM)
15 | CCNC(=O)Nc1cc2cc(NCc3ccc(NC(C)=O)cc3)cc(C)c2cn1 [Example 137, N-(4-{[3-(3-ethyl-ureido)-8-methyl-isoquinolin-6-ylamino]-methyl}-phenyl)-acetamide] | 8 (≈ 20.4 µM)
16 | CCNC(=O)Nc1cc2c(-c3ccncn3)ccc(Nc3ccc(C)nc3)c2cn1 [Example 287, 1-ethyl-3-[8-(6-methyl-pyridin-3-ylamino)-5-pyrimidin-4-yl-isoquinolin-3-yl]-urea] | 0.25 (≈ 0.626 µM)
17 | CCNC(=O)Nc1cc2cccc(Nc3cccc(C)n3)c2cn1.Cl [Example 155, 1-ethyl-3-[8-(6-methyl-pyridin-2-ylamino)-isoquinolin-3-yl]-urea hydrochloride] | 2
18 | CCNC(=O)Nc1cc2c(CN(C)C)ccc(Nc3cccc(OC)n3)c2cn1 [Example 273, 1-{5-[(dimethylamino)methyl]-8-[(6-methoxy-pyridin-2-yl)amino]-isoquinolin-3-yl}-3-ethyl-urea] | 4 (≈ 10.1 µM)
19 | CCNC(=O)Nc1cc2cccc(Nc3cccnc3)c2cn1 [Example 145, 1-ethyl-3-[8-(pyridin-3-ylamino)-isoquinolin-3-yl]-urea] | 1 (≈ 3.25 µM)
20 | CCNC(=O)Nc1cc2cc(NC(=O)COC)cc(C)c2cn1 [Example 195, N-[3-(3-ethyl-ureido)-8-methyl-isoquinolin-6-yl]-2-methoxy-acetamide] | 4 (≈ 12.6 µM)
21 | CCNC(=O)Nc1cc2cccc(Nc3cccc(C(N)=O)c3)c2cn1.Cl [Example 254, 3-[3-(3-ethyl-ureido)-isoquinolin-8-ylamino]-benzamide hydrochloride] | 1
22 | CCNC(=O)Nc1cc2cccc(Nc3cccc(O)c3)c2cn1 [Example 170, 1-ethyl-3-[8-(3-hydroxy-phenylamino)-isoquinolin-3-yl]-urea] | 2 (≈ 6.2 µM)
23 | CCNC(=O)Nc1cc2cccc(Nc3ccccc3)c2cn1 [Example 169, 1-ethyl-3-(8-phenylamino-isoquinolin-3-yl)-urea] | 1 (≈ 3.26 µM)
24 | C=Cc1ccc(-c2ccncc2)c2cc(NC(=O)NCC)ncc12 [Example 140, 1-ethyl-3-[5-(pyridin-4-yl)-8-vinylisoquinolin-3-yl]-urea] | 2 (≈ 6.28 µM)
25 | CCNC(=O)Nc1cc2cccc(Nc3cccc(NC(C)=O)c3)c2cn1 [Example 172, N-{3-[3-(3-ethyl-ureido)-isoquinolin-8-ylamino]-phenyl}-acetamide] | 2 (≈ 5.5 µM)
26 | CCNC(=O)Nc1cc2cc(-c3cncc(C(=O)OC)c3)cc(C)c2cn1 [Example 87, 5-[3-(3-ethyl-ureido)-8-methyl-isoquinolin-6-yl]-nicotinic acid methyl ester] | 8 (≈ 22 µM)
27 | CCNC(=O)Nc1cc2cccc(Nc3cncnc3)c2cn1 [Example 149, 1-ethyl-3-[8-(pyrimidin-5-ylamino)-isoquinolin-3-yl]-urea] | 2 (≈ 6.49 µM)
28 | CCNC(=O)Nc1cc2c(-c3cscc3C)ccc(C)c2cn1 [Example 64, 1-ethyl-3-[8-methyl-5-(4-methyl-thiophen-3-yl)-isoquinolin-3-yl]-urea] | 1 (≈ 3.07 µM)

Second part, the compound after the results:

Row | MIC [µg/mL] | Structure (SMILES)
29 | 2 (≈ 4.85 µM) | CCNC(=O)Nc1cc2c(-c3cccc(CN)c3)ccc(Nc3cccnc3)c2cn1 [Example 232, 1-(5-(3-(aminomethyl)phenyl)-8-(pyridin-3-ylamino)isoquinolin-3-yl)-3-ethylurea]
30 | 16 (≈ 47.4 µM) | CCNC(=O)Nc1cc2cccc(Nc3ccc(OC)nc3)c2cn1 [Example 214, 1-ethyl-3-[8-(6-methoxy-pyridin-3-ylamino)-isoquinolin-3-yl]-urea]
31 | 0.25 (≈ 0.586 µM) | CCNC(=O)Nc1cc2cc(NC(=O)c3ccc(S(C)(=O)=O)cc3)cc(C)c2cn1 [Example 117, N-[3-(3-ethyl-ureido)-8-methyl-isoquinolin-6-yl]-4-methanesulfonyl-benzamide]
32 | 8 (≈ 21.1 µM) | CCNC(=O)Nc1cc2cccc(Nc3ccc(C)c(C(=O)OC)c3)c2cn1 [Example 264, 5-[3-(3-ethyl-ureido)-isoquinolin-8-ylamino]-2-methyl-benzoic acid methyl ester]
33 | 1 | CCNC(=O)Nc1cc2cccc(Nc3cccc(C(=O)N(C)C)c3)c2cn1.Cl [Example 199, 3-[3-(3-ethyl-ureido)-isoquinolin-8-ylamino]-N,N-dimethyl-benzamide hydrochloride]
34 | 0.5 (≈ 1.07 µM) | CCNC(=O)Nc1cc2c(-c3ccnc(C)c3)ccc(Nc3cccc(C(=O)N(C)C)c3)c2cn1 [Example 248, 3-[3-(3-ethyl-ureido)-5-(2-methyl-pyridin-4-yl)-isoquinolin-8-ylamino]-N,N-dimethyl-benzamide]
35 | 2 | CCNC(=O)Nc1cc2cccc(Nc3cc(C)ccn3)c2cn1.Cl [Example 162, 1-ethyl-3-[8-(4-methyl-pyridin-2-ylamino)-isoquinolin-3-yl]-urea hydrochloride]
36 | 16 (≈ 42.3 µM) | CCNC(=O)Nc1cc2cc(NCc3ccc(C(=O)O)cc3)cc(C)c2cn1 [Example 127, 4-{[3-(3-ethyl-ureido)-8-methyl-isoquinolin-6-ylamino]-methyl}-benzoic acid]
37 | 1 (≈ 2.66 µM) | CCNC(=O)Nc1cc2c(-c3ccc(C(=O)N(C)C)cc3)ccc(C)c2cn1 [Example 5, 4-[3-(3-ethyl-ureido)-8-methyl-isoquinolin-5-yl]-N,N-dimethyl-benzamide]
38 | 8 | CCNC(=O)Nc1cc2c(-c3cn(C)cn3)ccc(C)c2cn1.Cl [Example 283, 1-ethyl-3-[8-methyl-5-(1-methyl-1H-imidazol-4-yl)-isoquinolin-3-yl]-urea hydrochloride]
39 | 4 | CCNC(=O)Nc1cc2c(-c3cnn(C)c3)ccc(C)c2cn1.Cl [Example 284, 1-ethyl-3-[8-methyl-5-(1-methyl-1H-pyrazol-4-yl)-isoquinolin-3-yl]-urea hydrochloride]
40 | 0.5 (≈ 1.56 µM) | CCNC(=O)Nc1cc2cc(-c3cccc(O)c3)cc(C)c2cn1 [Example 20, 1-ethyl-3-[6-(3-hydroxy-phenyl)-8-methyl-isoquinolin-3-yl]-urea]
41 | 4 | CCNC(=O)Nc1cc2cccc(Nc3ccc(C(=O)OC)cn3)c2cn1.Cl [Example 165, 6-[3-(3-ethyl-ureido)-isoquinolin-8-ylamino]-nicotinic acid methyl ester hydrochloride]
42 | 4 (≈ 12.3 µM) | CCNC(=O)Nc1cc2c(-c3cccnc3F)ccc(C)c2cn1 [Example 66, 1-ethyl-3-[5-(2-fluoro-pyridin-3-yl)-8-methyl-isoquinolin-3-yl]-urea]
43 | 16 (≈ 51.6 µM) | CCNC(=O)Nc1cc2c(F)ccc(-c3cccnc3)c2cn1 [Example 215, 1-ethyl-3-(5-fluoro-8-pyridin-3-yl-isoquinolin-3-yl)-urea]
44 | 4 (≈ 12.4 µM) | CCNC(=O)Nc1cc2c(-c3ccncc3)ccc(OC)c2cn1 [Example 125, 1-ethyl-3-(8-methoxy-5-pyridin-4-yl-isoquinolin-3-yl)-urea]
45 | 4 (≈ 8.9 µM) | CCNC(=O)Nc1cc2c(CN3CCN(C)CC3)ccc(Nc3cccc(OC)n3)c2cn1 [Example 276, 1-ethyl-3-[8-(6-methoxy-pyridin-2-ylamino)-5-(4-methyl-piperazin-1-ylmethyl)-isoquinolin-3-yl]-urea]
46 | 2 | CCNC(=O)Nc1cc2cccc(Nc3ccc(NC(C)=O)nc3)c2cn1.Cl [Example 161, N-{5-[3-(3-ethyl-ureido)-isoquinolin-8-ylamino]-pyridin-2-yl}-acetamide hydrochloride]
